Measured values published in patent US20230346827A1 (priority 2020, published 2023).

System: Human umbilical vein endothelial cells (HUVECs)
Experiment: Gene expression array and pathway analysis, HUVECs, LMW-DS 0.01 mg/ml 48 h
Format: cell-based
Details: for number of genes: abolished nutrient effect / number of genes: total / number of genes: enhanced response to nutrients / number of genes: not different from control / Activation z-score / Predicted activation state relative D2 control: HUVECs; for Activation z-score / Predicted activation state relative D2 control: D2 LMW-DS treatment
Procedure: For each cell line, n=8 × 25 cm^2 culture flasks were set up. Two flasks were harvested for each cell type on the day of treatment (24 hours after seeding). This represents the Day0 time point. From the remaining flasks, three flasks were treated with Control Medium and three were treated with Culture Medium (CM) containing LMW-DS to give a final concentration of 0.01 mg/ml. Cells from the treated flasks were collected after 48 hours. Therefore the collected data represent (a) untreated cells (Day0 Controls and Day2 Controls) and (b) cells treated with LMW-DS (ILB®, Tikomed AB, Viken, Sweden, WO 2016/076780) for 48 hours (Day2 LMW-DS treated).
Medium 200 + Large Vessel Endothelial Supplement (M200+LVES) additive (1:50) was prepared and pre-warmed to 37° C. Cells were thawed in a 37° C. water bath for no longer than 2 min and gently transferred into a 50 ml tube containing 20 ml Dulbecco’s Modified Eagle Medium, Nutrient Mixture F-12 (DMEM-F12). The cell suspension was mixed by inverting the tube carefully twice. Cells were spun at 400 × g for 10 minutes. Supernatant removed and cells were re-suspended in 10 ml of culture media (M200+LVES additive).
Cells were counted with the Cellometer. 1,000,000 cells/flask were seeded in 25 cm^2 flasks (n=8) and medium was topped up to a total of 5 ml per flask. Cells were incubated at 37° C. with 5% CO2. Cells were allowed to settle for 24 hours before LMW-DS treatment.
LMW-DS was provided at a stock concentration of 20 mg/ml and was kept in a temperature monitored refrigerator at 4° C. A fresh 100x LMW-DS stock (1.0 mg/ml) was prepared in sterile DMEM-F12. The concentrated drug stock was sterile filtered and added to the respective culture media (19.6 ml CM and 0.4 ml LMW-DS stock solution). The Control was made using 19.6 ml CM and 0.4 ml of DMEM-F12. LMW-DS and CM were added to the respective flasks (5 ml each) to reach the 0.01 mg/ml concentration of LMW-DS in each dish with a total of 10 ml CM each.
CM was aspirated into a clean and labelled 15 ml Falcon tube. The flasks (without culture medium) were placed into the -80° C. freezer for 30 minutes. The CM in the Falcon tubes was spun at 3000 x g for 5 minutes. Supernatant was removed and the small pellet was re-suspended in 2.5 ml Trizol:Water (4:1) solution at room temperature (RT, ~22° C.).
Two aliquots of 1 ml lysate were removed from each sample and 200 µl of chloroform was added to each (0.2 ml of chloroform per 1 ml of TRIzol Reagent used during the cell lysis step) and the tube was shaken vigorously. Samples were stored at RT for 2-3 minutes and subsequently centrifuged at 12,000 x g for 15 minutes at 4° C.
The RNA was precipitated from the aqueous phase by adding an equal amount of 100% ethanol. The precipitated RNA was fixed onto a Spin Cartridge, washed twice and dried. The RNA was eluted in 50 µl warm RNase-Free Water. The amount and quality of the purified RNA was measured by Nanodrop. The RNA was stored at -80° C. before transfer to Source Bioscience for Array analysis.
The expression data were downloaded into separate files for each cell line. The ‘Background corrected’ expression is the data from the “gProcessedSignal” of the arrays that is the result of the background signal extracted from the actual signal of the relevant probe. This is the most often used variable in array analysis. The background corrected signal was log2 transformed for all samples for statistical analysis. To reduce the false discovery rate in the samples, the signals that were below ‘expression level’ were removed. The ‘below expression’ level was set at 5 for the log2 transformed expression values.
Based on the expression pattern of the Control probes on each array it was decided to carry out Median Centering for all arrays before analysis to reduce the variability of the results. […]

sodium salt of dextran sulfate [LMW-DS]
genes regulating cell attachment (of 197) differentially regulated: none
number of differentially expressed genes (D0 control to D2 LMW-DS treated): 1779
number of differentially expressed genes (D2 control to D2 LMW-DS treated): 76
number of genes: abolished nutrient effect (no effect): 67
number of genes: total (no effect): 67
number of genes: abolished nutrient effect (significant downregulation): 4
number of genes: enhanced response to nutrients (significant downregulation): 120
number of genes: not different from control (significant downregulation): 167
number of genes: total (significant downregulation): 291
number of genes: abolished nutrient effect (significant upregulation): 11
number of genes: enhanced response to nutrients (significant upregulation): 229
number of genes: not different from control (significant upregulation): 1326
number of genes: total (significant upregulation): 1566
number of genes: abolished nutrient effect (total): 82
number of genes: enhanced response to nutrients (total): 349
number of genes: not different from control (total): 1493
number of genes: total (total): 1924
modulation of the effects of oxidative stress on mitochondria (pathway analysis of gene expression): no significant modulation
genes altered in Control cultures with no changes in LMW-DS treated cultures (two days): 67
genes downregulated by growth factors, downregulation stronger with LMW-DS (two days): 120
genes downregulated in control cultures, upregulated in LMW-DS treated cultures (two days): 11
genes increased in control cultures, downregulated in LMW-DS treated cultures (two days): 4
genes upregulated in Control cultures, upregulation stronger with LMW-DS (two days): 229
Activation z-score (upstream regulator HGF): 3.194
Predicted activation state relative D2 control (upstream regulator HGF): Activated relative to control
Activation z-score (upstream regulator TGFβ1): 1.429
Predicted activation state relative D2 control (upstream regulator TGFβ1): Activated relative to control
Activation z-score (upstream regulator VEGF): 3.432
Predicted activation state relative D2 control (upstream regulator VEGF): Activated relative to control
